The structures appear in SMILES notation.

Broadly, the melting point is the temperature of the solid-liquid transition.

The compound `CCOC(=O)c1c(N2CCNCC2)c2cccnc2n(Cc2ccccc2)c1=O` displayed a melting point of 120 °C.
Then `COc1ccncc1-c1cncc(OC2SCC(O)C(O)C2O)c1` (centres undefined), with 154 °C; and `O=C(O)c1c(F)cc(F)c(F)c1C(=O)O`, with 153 to 155 °C.
Then `O=C(NCCCCCCCNC(=O)c1ccc(OC2CCCC2)cc1)c1ccc(OC2CCCC2)cc1`, with 153 to 154 °C.
`CC(C)c1ocnc1C(=O)O`: the melting point fell in the range of 136 to 137 °C.
For `CCCCc1nc2c(N)nc3ccccc3c2n1CCCC1(C)OCCO1` the value was 169 to 172 °C.
For `CN(c1ccccc1)c1nc(N(C)c2ccccc2)c2sccc2n1` the value was 120 to 122 °C; for `O=[N+]([O-])c1ccc(NC2CC2)cc1`, 126 to 128 °C; for `N#CCc1ccc(OCc2ccccc2)cc1OCc1ccccc1`, 99 to 100 °C.
With `Cn1c(-c2cccc3[nH]c(-c4ccncc4)cc23)n[nH]c1=O`, the melting point is greater than 300 °C.
The compound `COc1ccc([N+](=O)[O-])cc1CN1CCNCCNCCNCC1` displayed a melting point of 154 to 156 °C.
For the compound `Cc1cc(-c2nn(C(C)c3oc4ccccc4c(=O)c3-c3cccc(F)c3)c3ncnc(N)c23)ccn1` (centres undefined), the melting point was in the range of 266 to 268 °C.
Then `O=C(CNC(=O)c1ccc(F)cc1)c1ccoc1`, with 142 to 143 °C; and `CCOC(=O)CCc1ccnc(O)c1`, with 73 to 76.5 °C; and `COc1cc2c(cc1OC)C(=Cc1ccccc1[N+](=O)[O-])C(=O)CC2`, with 63 to 64 °C.
Then `CC(C)(C)c1cc(OCC(=O)NN)cc(C(C)(C)C)c1O`, with 141 to 142 °C.
Consider `NC(=O)c1c(-c2cccc(F)c2)c(Cl)n2c1CN(C(=O)N[C@H]1CC[C@H](O)CC1)CC2`, for which the melting point fell in the range of 251 to 253 °C.
Then `CCN(CC)CCNC(=O)c1cc(Cl)c(N)cc1OCCS(C)=O` (centres undefined), with 110 to 114 °C; and `O=C1C=CC(OC2CCCC2)N1S(=O)(=O)c1ccccc1` (centres undefined), with 123 to 124 °C; and `C=C(c1cccc(-c2cnnn2COCC)c1F)C(O)(Cn1cncn1)c1ccc(F)cc1F` (centres undefined), with 136 to 138 °C.
`CCC(=O)CC(=O)C1CCC2C3CCC4CC(O)CCC4(C)C3C(=O)CC12C` (centres undefined) returned a melting point of 128 to 130 °C.
For `COc1ccc(-c2cc3ccc(C)cc3s2)cc1` the value was 198 to 200 °C; for `CC(=O)c1ccc2c(c1)N(C(=O)OC(C)(C)C)CCC2`, 125 to 127 °C; for `O=C1c2ccccc2C(=O)c2cc(Br)c(Br)cc21`, greater than 300 °C.
Then `O=C(O)c1cn(CCc2cccc(C(F)(F)F)c2)c2cc(C3CC3)nn2c1=O`, with 200 to 205 °C; and `CC(=O)N(C)c1cc([N+](=O)[O-])cc([N+](=O)[O-])c1`, with 134 to 136 °C.
For `CNS(=O)(=O)Cc1ccc2[nH]cc(CCN)c2c1`, the melting point is 179 to 181 °C.
For `CN(C)Nc1cc(Cl)c(Cl)cc1[N+](=O)[O-]` the value was 138 to 143 °C; for `O=[N+]([O-])c1cc2ccc(C(Cl)(Cl)Cl)nc2c2nc(C(Cl)(Cl)Cl)ccc12`, 228 to 231 °C.
Take `O=C(O)C1=C(c2ccccc2)c2cc(Cl)ccc2OC1CC(F)(F)F` (centres undefined): the melting point fell in the range of 226 to 227 °C.
For `CN(c1ccc2c(c1)CCC2)c1nc(=O)c2cccnc2s1` the value was 157 to 160 °C; for `O=C(O)c1cn(C2CC2)c2c(F)c(N3CC(N4CCCC4)C3)c(F)cc2c1=O`, 224 to 227 °C.
`C#CC1(OC(C)=O)CCC2C3CCC4=CC(=O)C=CC4(C)C3CCC21C` (centres undefined): the melting point lay within 172 to 173 °C.
Then `CCCCCCCCCCCCc1ccc(S(=O)(=O)Nc2nnc(CCCCCN(C)c3ccc([N+](=O)[O-])c4nonc34)s2)cc1`, with 102 to 104 °C; and `NC(=O)Cc1ccc2c(c1)Cc1c-2[nH]c(=O)c2nccn12`, with greater than 260 °C; and `COc1ccc(-c2nc(N3CCOCC3)c3sc(CN(C)c4ncc(C(=O)NO)cn4)cc3n2)cn1`, with 177 to 180 °C.
For the compound `OC(CCc1cccnc1)COc1ccc(-c2ccccc2)cc1` (centres undefined), the melting point lay in the range of 83 to 86 °C.
As for `CCOC(=O)c1nn(-c2ccc(Cl)cc2Cl)c(-c2ccc(Cl)cc2)c1C#N`, the melting point was determined as 112 °C.
Then `CCc1cc2c(=O)c3cccc(C(=O)OCOC(=O)C(C)(C)C)c3n(Cc3ccc(-c4ccccc4-c4nnn[nH]4)cc3)c2s1`, with 146 to 152 °C; and `O=C(Nc1nccs1)c1c(CO)nc2c(C(F)(F)F)cccc2c1O`, with 280 °C.
For `CCSc1ccc2oc3cc(-c4nnn[nH]4)ccc3c(=O)c2c1` the value was 261 to 262 °C; for `COC(=O)C(C)C(=O)Nc1ccc(OCc2cccc(F)c2)cc1` (centres undefined), 119 °C; for `Cc1nc2n(n1)C(N1CCN(C)CC1)=Nc1ccccc1C2`, 185 to 187 °C.
Compound `CCOC(=O)CN1C(=O)COc2cc(F)c([N+](=O)[O-])cc21` yielded a melting point of 79 to 81 °C.
With `CCOC(=O)c1ccc(-c2cnc3c(c2)N(Cc2ccccc2)CCN3)cc1`, the melting point was 178 to 179 °C.
For `Brc1ccc(OCCCCCCN2CCN(c3nccs3)CC2)cc1` the value was 66 to 68 °C; for `C=CCC1C(=O)c2cc(OC)ccc2C2CCC3(C)C(O)CCC3C12` (centres undefined), 122 to 123 °C.
Regarding `O=C1C(=O)c2ccccc2C2=C1SCC1(CCSCC1)O2`, the melting point lay in the range of 221 to 223 °C.
Regarding `CC(Oc1ccc(Oc2ccc3ccc(Br)cc3n2)cc1)C(=O)NCC(=O)O` (centres undefined), the melting point was in the range of 157 to 159 °C.
Then `CCOC(=O)C(CC)Nc1ccc2ccccc2c1` (centres undefined), with 81 to 83 °C.
In the case of `CCCC(=O)COS(=O)(=O)c1c(C)cc(C)c(C)c1C`, the melting point lay within 49 to 50 °C.
For `CCCc1c(OCCc2ccc3cc(O)c(O)cc3c2)ccc(C(=O)O)c1O` the value was 216 to 218 °C.
For `CN1C(=O)C(c2ccccc2)(c2ccncc2)N=C1N` (centres undefined) the value was 154 to 155 °C; for `COc1ccc(CSc2nnc(-c3ccnc(NC(=O)CCc4ccccc4)c3)o2)cc1C#N`, 176 to 177 °C.
In turn, `CCCOc1ccccc1-c1ccc(C(N)=O)c(=O)[nH]1` gave a melting point of 176 to 178 °C.
In turn, `O=C(c1cc2ccccc2s1)N1CCc2[nH]c3c(cnc4cc(Cl)ccc43)c2C1` had a melting point greater than 250 °C.
Compound `CN(C)c1nc2sc3c(NCc4ccccn4)ncnc3c2c2c1COC(C)(C)C2` came in with a melting point of 217 to 218 °C.
For `O=C(N[C@@H]1C[C@H]1c1ccccc1)c1ccc2cnccc2n1` (relative stereo) the value was 123 to 124 °C; for `COc1ccc2c(c1)OCCC(C(=O)O)=C2`, 197 to 200 °C; for `CC(=O)Oc1cc2c(c(OC(C)=O)c1)C1CCC3(C)C(=O)CCC3C1CC2` (centres undefined), 179 to 180 °C.
`O=C1Cc2c(Cl)cccc2Sc2ccccc21` displayed a melting point of 122 to 125 °C.
`CCCCN(CCCC)Cc1cc(NC(=O)Nc2c(C(C)C)cccc2C(C)C)n(Cc2ccccc2)n1` had a melting point of 149 to 152 °C.
`CCOC(=O)c1ccc(C=C(C)c2ccc3c(c2)SCCC3(C)C)cc1` displayed a melting point of 64 to 65 °C.
In the case of `Cc1c(-c2ccccc2)oc(C(=O)O)cc1=O`, the melting point amounted to 218 °C.

(Values after a melting point compilation (Tetko et al.; mined from patent text by program, amines drawn as free bases though some values may be those of a salt).)
